Source: patent publication US20110010099A1, “Correlation Analysis of Biological Systems” (priority 2005, published 2011)

Legend:
Format in all cases: in vivo
[1] = test system: liver of male Wistar Hannover rats; experiment: Rat hepatotoxicity study: liver morphology / histopathology for steatosis; settings: 7 days dosing, sacrifice day 8, male Wistar Hannover rats
Excerpt: The primary objective of the study was to discover biomarkers in plasma of hepatic steatotic processes. In the course of this study, multiple molecular profiling techniques and data analysis methodologies were employed. A corollary objective of this study was to elucidate mechanisms underlying hepatic steatosis induced by the drug.
The study was designed to generate tissue and body fluid samples from groups of animals exposed for varying times at different doses to a drug previously shown to produce toxic steatosis of the liver.
(§1) Five Wistar Hannover male rats were used per group. Three groups were dosed for 7 days (control, low and intermediate dose) and urine collected twice daily for up to 7 days. One group was dosed once with a high dose of the drug and kept in a metabolism cage for a recovery study. In addition, three groups (control, intermediate and high dose) were dosed once and sacrificed after 24 hours. Plasma and liver tissue samples were collected from all groups at necropsy. Clinical pathology was performed and histopathological evaluations were provided.
The study was designed to generate tissue and body fluid samples from groups of animals treated for varying times and with different doses of ABC123. The different time points and dosing schedules were intended to allow the identification of biomarkers of steatosis over different times and doses.

[2] = test system: plasma analytes of male Wistar Hannover rats; experiment: Plasma GC-MS metabolite profiling in rat hepatotoxicity study; settings: Group 3 drug-administered animals compared to Group 1 animals
Protocol: as §1
Liver and plasma lipid LC-MS. Samples (liver or plasma) were treated with isopropanol to precipitate the protein and to extract the lipid metabolites. […] Resulting mass spectra were peak detected with IMPRESS (proprietary software, BG Medicine, Inc., Waltham, Mass.) and aligned/normalized with Equest and WinLin (proprietary software, BG Medicine, Inc., Waltham, Mass.). […] Metabolites detected with this approach include polar and non-polar lipids. […] The samples were detected with electron impact ionization on an Agilent 5973 MSD. […] Metabolites detected with this method include: alcohols, aldehydes and cyclohexanols, amino acids, acyl amino acids, succinylamino acids, amines, aromatic compounds, fatty acids (>C6), organic acids, phospho-organic acids, sugars, sugar acids, sugar amines, and sugar phosphates. […]

[3] = test system: Enzyme_ABC in liver tissue; experiment: Liver LC-MS proteomics profiling in rat hepatotoxicity study; settings: Group 3 drug-administered animals relative to Group 1 control animals
Protocol: as §1
• Sample: 100 mg of liver dissected from the thawed liver sample was cut into four 25 mg pieces and homogenized. • Clarification/Fractionation: Unbroken cells, nuclei and extracellular debris were removed using low-G centrifugation, and the resulting clarified homogenate was then subjected to membrane/cytosol fractionation using high-speed ultracentrifugation. • Protein Fractionation of Cytosol: The total cytosolic protein was subjected to C4 reversed-phase column chromatography to isolate 3 fractions for proteomic analysis. […] The resulting membrane tryptic peptide fraction was dried in vacuo. • Profiling of Peptides: Cytosolic peptides from the three acidic peptide sets and the membrane tryptic peptide fraction were quantitatively analyzed for differential expression via reversed-phase LC-ESI-MS. […]

[4] = test system: liver mRNA transcripts (Enzyme_ABC, Enzyme_DEF); experiment: Liver mRNA transcript profiling (Affymetrix U34A) in rat hepatotoxicity study; settings: Group 3 drug-administered animals relative to Group 1 control animals
Protocol: Affymetrix microarray processing was carried out on liver tissue samples from 35 animals distributed among the seven experimental groups.
An additive effect on the log-transformed signal related to hybridization day was modeled, and the triplicate control samples were used to estimate the effect.

Cn1c(=O)c2c(ncn2CC2OCCO2)n(C)c1=O [ABC123]
steatosis upon examination of the livers using standard morphology techniques ([1]; Group 2 (lowest dose): 20 mg/kg/day): no evidence of steatosis
steatosis upon examination of the livers using standard morphology techniques ([1]; Group 3: 200 mg/kg/day): morphological steatosis
increase in abundance of Metabolite_XYZ in plasma (plasma GC-MS platform) [2]: approximately 1.4 fold
reduction in abundance of Enzyme_ABC in liver tissue (proteomics platform) [3]: approximately 2 fold
reduction in abundance of Enzyme_ABC in liver tissue (mRNA transcript platform) [4]: approximately 1.7 fold
